Laboratory results reported in US20190105337A1, “METHODS OF TREATING BACTERIAL INFECTIONS” (priority 2015, published 2019).
Where two headings read alike, the source gives them in different places. Each block holds one compound with its values, some of them ahead of it.

How the values were obtained:
Assay type in all cases: in vivo, human
[1] = Example 3: adverse events during the multiple dose phase
Procedure: All infusions were administered over 3 hours. Intensive plasma and urine PK sampling was obtained after dosing and assayed using validated HPLC/MS methods.
Table 7 summarizes the number (%) of subjects with at least one treatment emergent AE and number of adverse events during the multiple dose phase. […] All AEs, except 2 were mild or moderate in severity. […] There is no evidence that the addition of Compound I changed the AE profile of meropenem.

[2] = Example 1: pharmacokinetics of Compound I, single (SD) and multiple (MD, q8h 7 days) ascending doses, 3-hour IV infusion, healthy adult subjects; conditions: for CL renal / AUC(0-t) / Cmax / Tmax / half-life / AUC(0-inf) / dose excreted: human, intravenous; for CL renal: plasma and urine; for AUC(0-t) / Cmax / Tmax / half-life / AUC(0-inf): plasma; for dose excreted: urine
Procedure: (§1) 56 healthy subjects were enrolled into one of 7 cohorts of 8 subjects each in the single ascending dose phase (250 mg, 500 mg, 750 mg, 1000 mg, 1250 mg, 1500 mg and 2000 mg). Thirty-two additional subjects were then enrolled into one of 4 cohorts in the multiple-dose phase (250 mg, 1000 mg, 1500 mg, and 2000 mg, given q8 h for 7 days). […] All infusions were administered over 3 hours. Plasma and urine samples were obtained after single or multiple doses and assayed for Compound I content using a validated HPLC/MS method.

[3] = Example 1: safety and tolerability of Compound I in healthy adult subjects
Procedure: as §1

Compound: C[C@@H](O)[C@H]1C(=O)N2C(C(=O)O)=C(S[C@@H]3CN[C@H](C(=O)N(C)C)C3)[C@H](C)[C@H]12 [meropenem, Meropenem]
AEs, Number of Events ([1]; Pooled 2 g Meropenem): [24]
Moderate or Severe AEs, N subjects ([1]; Pooled 2 g Meropenem): 0
Subjects with at least one Treatment Emergent AE, % ([1]; Pooled 2 g Meropenem): 80%
AEs, Number of Events ([1]; Pooled Meropenem (1 and 2 g)): [67]
Moderate or Severe AEs, % subjects ([1]; Pooled Meropenem (1 and 2 g)): 24%
Moderate or Severe AEs, N subjects ([1]; Pooled Meropenem (1 and 2 g)): 5
Moderate or Severe AEs, Number of Events ([1]; Pooled Meropenem (1 and 2 g)): [5]
Subjects with at least one Treatment Emergent AE, % ([1]; Pooled Meropenem (1 and 2 g)): 95%
Mild nausea ([1]; alone or in combination): observed only in the subjects who received meropenem 2 g

CLNon-R ([2]; 250 mg multiple dose): 2.49 L/h
CLNon-R ([2]; 250 mg single dose): 2.85 L/h
CLNon-R ([2]; 500 mg single dose): 2.55 L/h
CLNon-R ([2]; 750 mg single dose): 1.72 L/h
CLNon-R ([2]; 1000 mg multiple dose): 2.31 L/h
CLNon-R ([2]; 1000 mg single dose): 0.97 L/h
CLNon-R ([2]; 1250 mg single dose): 1.33 L/h
CLNon-R ([2]; 1500 mg multiple dose): 1.68 L/h
CLNon-R ([2]; 1500 mg single dose): 1.42 L/h
CLNon-R ([2]; 2000 mg multiple dose): 1.15 L/h
CLNon-R ([2]; 2000 mg single dose): -1.07 L/h
exposure (Cmax and AUC) versus dose ([2]; following single and multiple doses): increased in a dose-proportional manner
CL renal ([2]; 250 mg, 250 mg multiple dose): 212 mL/min
CL renal ([2]; 250 mg, 250 mg single dose): 212 mL/min
CL renal ([2]; 500 mg, 500 mg single dose): 197 mL/min
CL renal ([2]; 750 mg, 750 mg single dose): 217 mL/min
CL renal ([2]; 1000 mg, 1000 mg multiple dose): 195 mL/min
CL renal ([2]; 1000 mg, 1000 mg single dose): 202 mL/min
CL renal ([2]; 1250 mg, 1250 mg single dose): 192 mL/min
CL renal ([2]; 1500 mg, 1500 mg multiple dose): 187 mL/min
CL renal ([2]; 1500 mg, 1500 mg single dose): 197 mL/min
CL renal ([2]; 2000 mg, 2000 mg multiple dose): 213 mL/min
CL renal ([2]; 2000 mg, 2000 mg single dose): 252 mL/min
AUC(0-t) ([2]; 250 mg, 250 mg multiple dose): 16300 ng·h/mL
Cmax ([2]; 250 mg, 250 mg multiple dose): 4810 ng/mL
Tmax ([2]; 250 mg, 250 mg multiple dose): 2.25 h
half-life ([2]; 250 mg, 250 mg multiple dose, read-out: T1/2 (converted)): 1.17 h
AUC(0-t) ([2]; 250 mg, 250 mg single dose): 16200 ng·h/mL
Cmax ([2]; 250 mg, 250 mg single dose): 5030 ng/mL
Tmax ([2]; 250 mg, 250 mg single dose): 3.02 h
half-life ([2]; 250 mg, 250 mg single dose, read-out: T1/2 (converted)): 1.17 h
AUC(0-t) ([2]; 500 mg, 500 mg single dose): 34500 ng·h/mL
Cmax ([2]; 500 mg, 500 mg single dose): 9970 ng/mL
Tmax ([2]; 500 mg, 500 mg single dose): 3 h
half-life ([2]; 500 mg, 500 mg single dose, read-out: T1/2 (converted)): 1.35 h
AUC(0-t) ([2]; 750 mg, 750 mg single dose): 50600 ng·h/mL
Cmax ([2]; 750 mg, 750 mg single dose): 15300 ng/mL
Tmax ([2]; 750 mg, 750 mg single dose): 3 h
half-life ([2]; 750 mg, 750 mg single dose, read-out: T1/2 (converted)): 1.24 h
AUC(0-t) ([2]; 1000 mg, 1000 mg multiple dose): 74600 ng·h/mL
Cmax ([2]; 1000 mg, 1000 mg multiple dose): 21300 ng/mL
Tmax ([2]; 1000 mg, 1000 mg multiple dose): 3 h
half-life ([2]; 1000 mg, 1000 mg multiple dose, read-out: T1/2 (converted)): 1.43 h
AUC(0-t) ([2]; 1000 mg, 1000 mg single dose): 76700 ng·h/mL
Cmax ([2]; 1000 mg, 1000 mg single dose): 21800 ng/mL
Tmax ([2]; 1000 mg, 1000 mg single dose): 3.01 h
half-life ([2]; 1000 mg, 1000 mg single dose, read-out: T1/2 (converted)): 1.41 h
AUC(0-t) ([2]; 1250 mg, 1250 mg single dose): 97200 ng·h/mL
Cmax ([2]; 1250 mg, 1250 mg single dose): 27800 ng/mL
Tmax ([2]; 1250 mg, 1250 mg single dose): 3 h
half-life ([2]; 1250 mg, 1250 mg single dose, read-out: T1/2 (converted)): 1.32 h
AUC(0-t) ([2]; 1500 mg, 1500 mg multiple dose): 118000 ng·h/mL
Cmax ([2]; 1500 mg, 1500 mg multiple dose): 33400 ng/mL
Tmax ([2]; 1500 mg, 1500 mg multiple dose): 3 h
half-life ([2]; 1500 mg, 1500 mg multiple dose, read-out: T1/2 (converted)): 1.65 h
AUC(0-t) ([2]; 1500 mg, 1500 mg single dose): 110000 ng·h/mL
Cmax ([2]; 1500 mg, 1500 mg single dose): 32900 ng/mL
Tmax ([2]; 1500 mg, 1500 mg single dose): 3.01 h
half-life ([2]; 1500 mg, 1500 mg single dose, read-out: T1/2 (converted)): 1.4 h
AUC(0-t) ([2]; 2000 mg, 2000 mg multiple dose): 145000 ng·h/mL
Cmax ([2]; 2000 mg, 2000 mg multiple dose): 40900 ng/mL
Tmax ([2]; 2000 mg, 2000 mg multiple dose): 2.25 h
half-life ([2]; 2000 mg, 2000 mg multiple dose, read-out: T1/2 (converted)): 1.66 h
AUC(0-t) ([2]; 2000 mg, 2000 mg single dose): 140000 ng·h/mL
Cmax ([2]; 2000 mg, 2000 mg single dose): 41600 ng/mL
Tmax ([2]; 2000 mg, 2000 mg single dose): 3.02 h
half-life ([2]; 2000 mg, 2000 mg single dose, read-out: T1/2 (converted)): 1.51 h
half-life ([2]; observed, single and multiple doses, read-out: terminal half-life): < 2 h
AUC(0-inf) ([2]; 250 mg single dose): 16600 ng·h/mL
AUC(0-inf) ([2]; 500 mg single dose): 35600 ng·h/mL
AUC(0-inf) ([2]; 750 mg single dose): 51800 ng·h/mL
AUC(0-inf) ([2]; 1000 mg single dose): 79300 ng·h/mL
AUC(0-inf) ([2]; 1250 mg single dose): 100000 ng·h/mL
AUC(0-inf) ([2]; 1500 mg single dose): 114000 ng·h/mL
AUC(0-inf) ([2]; 2000 mg single dose): 144000 ng·h/mL
dose excreted ([2]; 250 mg, 250 mg multiple dose, read-out: Urinary Recovery): 79.9%
dose excreted ([2]; 250 mg, 250 mg single dose, read-out: Urinary Recovery): 81.3%
dose excreted ([2]; 500 mg, 500 mg single dose, read-out: Urinary Recovery): 80.3%
dose excreted ([2]; 750 mg, 750 mg single dose, read-out: Urinary Recovery): 86.4%
dose excreted ([2]; 1000 mg, 1000 mg multiple dose, read-out: Urinary Recovery): 82.8%
dose excreted ([2]; 1000 mg, 1000 mg single dose, read-out: Urinary Recovery): 89.9%
dose excreted ([2]; 1250 mg, 1250 mg single dose, read-out: Urinary Recovery): 86.9%
dose excreted ([2]; 1500 mg, 1500 mg multiple dose, read-out: Urinary Recovery): 86.8%
dose excreted ([2]; 1500 mg, 1500 mg single dose, read-out: Urinary Recovery): 86.6%
dose excreted ([2]; 2000 mg, 2000 mg multiple dose, read-out: Urinary Recovery): 91.6%
dose excreted ([2]; 2000 mg, 2000 mg single dose, read-out: Urinary Recovery): 105%
dose excreted ([2]; over 48 hours across all dose groups, read-out: Urinary recovery): ≥ 80%
accumulation with multiple doses ([2]; q8h for 7 days): no evidence of accumulation
Compound: O=C(O)C[C@@H]1CC[C@H](NC(=O)Cc2cccs2)B(O)O1 [Compound I]
serious adverse events (SAEs) ([3]; 250-2000 mg): no serious adverse events
severity of AEs ([3]; 250-2000 mg): all AEs were mild or moderate
safety and tolerability ([3]; all doses tested): safe and well tolerated at all doses tested
